Common to all, as to format: cell-based, human
The test system of test [1] is HCT 116. Briefly: Mitochondrial membrane potential (ΔΨm), JC-1 probe. The following applies: compound at IC50, vs control. An excerpt:
(§1) Changes in mitochondrial potential in cancer cells exposed to the tested derivatives were monitored using the fluorescent probe JC-1. In non-apoptotic cells, JC-1 aggregates emit red-orange fluorescence. During changes in mitochondrial membrane potential, such as those associated with the initiation of PCD stages (both hyperpolarization and depolarization of mitochondrial membranes), JC-1 is converted to monomers, emitting green fluorescence.
(§2) 5,5,6,6-Tetrachloro-1,1,3,3-tetraethylbenzimidazolylcarbocyanine iodide (JC-1) is one of the most reliable fluorescent probes used to assess changes in mitochondrial membrane potential (ΔΨ). In living cells with intact mitochondrial membranes, the lipophilic, cationic dye JC-1 penetrates the negatively charged mitochondrial matrix as a monomer, where it forms fluorescent aggregates with red-orange fluorescence (λex = 514 nm, λem = 590). […] The fluorescence ratio of aggregates (λem = 590 nm) and monomers (λem = 529 nm)—590 nm/529 nm—reflects the level of damage to the mitochondrial membrane.
(§3) Cells were seeded in black 96-well fluorometric microplates at a density of 10 × 10^3 cells/mL. […] Following treatment, the medium was removed, and the cell monolayers were washed twice with HBSS (140 mM NaCl, 5 mM KCl, 0.8 mM MgCl2, 1.8 mM CaCl2, 1 mM Na2HPO4, 10 mM HEPES, and 1% glucose). Then, 50 μL of a JC-1 solution in HBSS was added to each well, and the cells were incubated for 30 min in the dark at 37 °C (final JC-1 concentration 5 μM). After removing the fluorescent dye and replacing it with fresh HBSS, fluorescence measurements were taken using a Perkin-Elmer LS-5B spectrofluorometer (Perkin-Elmer LS-5B spectrofluorometer, Waltham, MA, USA). The excitation and emission wavelengths for JC-1 monomers were 514 nm and 529 nm, respectively, while for aggregates, they were 514 nm and 590 nm. The results were expressed as a percentage change in the fluorescence ratio of JC-1 aggregates to JC-1 monomers compared to the control, which was set at 100%.

Test [2] concerns LoVo. Briefly: Mitochondrial membrane potential (ΔΨm), JC-1 probe. The conditions noted are these: compound at IC50, vs control.
Source text: as §1, §2, §3

Test [3] concerns Caco-2. Briefly: Mitochondrial membrane potential (ΔΨm), JC-1 probe. The conditions noted are these: compound at IC50, vs control.
Source text: as §1, §2, §3

Test [4] relates to HT-29. Description: Reactive nitrogen species level, DAF-FM probe. The conditions noted are these: compound at IC50, 24 h. As to the method:
(§4) Diaminofluorescein-FM diacetate (DAF-FM diacetate, Invitrogen, Carlsbad, CA, USA), a cell-permeable fluorescent probe, is widely utilized for the detection and quantification of reactive nitrogen species (RNS), primarily nitric oxide (NO). […] Upon interaction with NO, however, it undergoes a chemical transformation resulting in the formation of a highly fluorescent benzotriazole derivative with excitation and emission maxima at 495 and 515 nm, respectively.
(§5) Cells were seeded in black 96-well fluorometric microplates at a density of 10 × 10^3 cells/mL. […] Following compound incubation, the medium was removed, and the cell monolayers were washed twice with HBSS (140 mM NaCl, 5 mM KCl, 0.8 mM MgCl2, 1.8 mM CaCl2, 1 mM Na2HPO4, 10 mM HEPES, and 1% glucose). […] Fluorescence measurements were conducted using a Perkin-Elmer LS-5B spectrofluorometer (MA, USA) at the following excitation and fluorescence emission wavelengths: λex = 495 nm/λem = 515 nm. The fluorescence intensity of control cells was arbitrarily assigned a value of 100%. The results were expressed as percentages of control, calculated by comparing the fluorescence intensity ratio of the test samples to controls (100%). The fluorescence of samples was denoted as Δf in relation to the control.

The test system of test [5] is SW620. Description: Reactive nitrogen species level, DAF-FM probe. The conditions noted are these: compound at IC50, 24 h. How it is done: as §4, §5
The test system of test [6] is SW620. Description: Alkaline comet assay (DNA damage). The following applies: compound at IC50, 12 h, vs control group. The source says: Single-cell gel electrophoresis, also known as the comet assay, is a rapid and sensitive method for assessing DNA damage at the single-cell level. Cells are lysed and electrophoresed. Both single-strand and double-strand breaks are detected under alkaline conditions. The released DNA is denatured and moves in the agarose gel toward the anode during electrophoresis. The image, obtained after staining with the fluorescent dye 4′,6-diamidino-2-phenylindole (DAPI), resembles a “comet” with a distinct “head” (intact DNA) and “tail” (damaged DNA fragments). The length of the tail depends on the number and size of the broken DNA strands.
Cells (1 × 10^3) were seeded in 35 mm dishes and cultured in the medium for 24 h to attain the logarithmic growth phase. […] Quantitative analysis of the DNA comet image of preparations stained with DAPI solution (2 μg/L) was performed using a camera connected to a fluorescence microscope. The comet DNA analysis was performed under a Nikon Eclipse fluorescence microscope (Nikon, Tokyo, Japan) equipped with a 4910 COHU video camera (Cohu, Inc., San Diego, CA, USA) and a computer with Lucia-Comet v. […] Each time, from each preparation, 100 randomly selected comets were counted. The extent of DNA damage is quantified by measuring the length of the comet tail and the amount of DNA it contains. […]

These results are taken from article PMC11641365, “Evaluation of In Vitro Biological Activity of Flavanone/Chromanone Derivatives: Molecular Analysis of Anticancer Mechanisms in Colorectal Cancer” (International Journal of Molecular Sciences, 2024).

The structures appear in SMILES notation.

In the case of `O=C1/C(=C/c2ccccc2)COc2ccccc21` [Compound 1], in test [1], the “Change in mitochondrial membrane potential ΔΨm” value is given as “no statistically significant changes”. Also, the “Decrease in ΔΨm (depolarization)” value in test [2] is ~ 20%; in test [3] it was ~ 30%. Also, the “Change in RNS levels” value in test [4] and in test [5] was “significantly increased RNS levels” throughout.
For `COc1cccc(/C=C2/C(=O)c3ccccc3OC2c2ccccc2)c1` (stereo not drawn) [Compound 3], the “Increase in DNA content in the comet tail” value in test [6] was “approximately 40%”.
